Laboratory results from PMC6828666, “Discovery of holoenzyme-disrupting chemicals as substrate-selective CK2 inhibitors” (Scientific Reports, 2019).

Tests used:
[1] = biological target: T1, CK2α (Homo sapiens, UniProt P68400); experiment: STD-NMR competition with AMPPNP; type: binding
Description: Standard 1D, STD, and WaterLOGSY NMR spectra were acquired at 20 °C with a Bruker 600 MHz NMR spectrometer, equipped with a Z-gradient cryoprobe. WaterLOGSY mixing time was 1.5 s. Both STD and WaterLOGSY spectra were recorded for each sample. WaterLOGSY spectra in the absence of protein receptor were recorded with 300 µM compound to assess the compound solubility. All the NMR experiments were performed at 293 K with excitation sculpting to suppress peaks from water. 1D and STD experiments were performed using identical experimental conditions (spin lock, interscan delays), and parameters for the STD experiments (saturation frequency and saturation time) were identical for all samples. […] NMR tubes contained 2 μM CK2 with 300 μM of 4.
Fig. S8. NMR-based investigation of the binding of compound 4 to CK2α. (a) NMR-STD epitope mapping observed for compound 4. […] Both compounds bind simultaneously to CK2α.

[2] = biological target: T2, CHK2 (Homo sapiens, UniProt O96017); experiment: Kinase selectivity profiling (Millipore Kinase profiler); type: biochemical; conditions: 100 μM compound; 10 μM ATP
T2 construct: purchased Millipore (Upstate Kinase Profiler Panel Service)
T2 sequence (O96017 whole entry): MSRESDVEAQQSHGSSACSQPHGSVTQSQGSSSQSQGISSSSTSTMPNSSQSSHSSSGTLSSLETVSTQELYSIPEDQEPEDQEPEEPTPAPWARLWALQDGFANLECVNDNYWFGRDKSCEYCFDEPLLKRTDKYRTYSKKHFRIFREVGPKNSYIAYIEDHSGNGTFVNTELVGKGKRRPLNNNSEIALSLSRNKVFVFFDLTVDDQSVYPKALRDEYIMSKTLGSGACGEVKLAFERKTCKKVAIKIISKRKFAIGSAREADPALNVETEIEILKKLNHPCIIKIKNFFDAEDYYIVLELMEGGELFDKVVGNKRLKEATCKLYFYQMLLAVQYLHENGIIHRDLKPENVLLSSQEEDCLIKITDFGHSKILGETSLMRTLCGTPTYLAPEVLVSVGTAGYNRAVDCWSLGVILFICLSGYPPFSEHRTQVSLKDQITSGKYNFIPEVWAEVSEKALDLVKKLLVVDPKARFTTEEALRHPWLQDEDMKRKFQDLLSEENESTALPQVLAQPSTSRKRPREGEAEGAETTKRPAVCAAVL
Description: (§1) Kinase selectivity of compound 1 was assessed using a panel of 45 recombinant protein kinases. The assays were performed at 10 μM ATP in the presence of 100 μM inhibitor using the Kinase profiler panel service (Millipore). Inhibition, expressed as the percent of activity determined in the absence of inhibitor, was calculated from the residual activity measured in the presence of 100 μM inhibitor.
(§2) Fig. S4. Kinase selectivity profile of compound 1 on a panel of 45 different protein kinases. The assays were performed at 10 μM ATP in the presence of 100 μM compound 1 using the Upstate Kinase Profiler Panel Service (Millipore). Residual activity in presence of 100 μM compound 1 are depicted in (a) and a graphical representation of the inhibition percentage in the presence of 100 μM compound 1 is shown in (b).

[3] = biological target: T1, CK2α; experiment: as above; type: biochemical; conditions: 100 μM compound; 10 μM ATP
Description: as §1, §2

[4] = biological target: T3, CK2α2β2 (Homo sapiens, UniProt P68400); experiment: as above; type: biochemical; conditions: 100 μM compound; 10 μM ATP
T3 construct: purchased Millipore (Upstate Kinase Profiler Panel Service)
T3 sequence (P68400 whole entry): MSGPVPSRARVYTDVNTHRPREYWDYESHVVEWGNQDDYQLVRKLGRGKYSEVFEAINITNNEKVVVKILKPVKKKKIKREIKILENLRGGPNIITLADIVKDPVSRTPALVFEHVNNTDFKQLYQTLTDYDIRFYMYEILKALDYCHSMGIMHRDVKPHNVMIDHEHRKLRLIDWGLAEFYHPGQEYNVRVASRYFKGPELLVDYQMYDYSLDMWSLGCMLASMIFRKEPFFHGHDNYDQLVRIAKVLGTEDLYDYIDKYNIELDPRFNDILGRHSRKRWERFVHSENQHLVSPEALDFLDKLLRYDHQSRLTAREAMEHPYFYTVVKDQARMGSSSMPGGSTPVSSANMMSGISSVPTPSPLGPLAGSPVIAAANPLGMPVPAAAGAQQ
Description: as §1, §2

[5] = biological target: T4, Pim-1 (Homo sapiens, UniProt P11309); experiment: as above; type: biochemical; conditions: 100 μM compound; 10 μM ATP
T4 construct: purchased Millipore (Upstate Kinase Profiler Panel Service)
T4 sequence (P11309 whole entry): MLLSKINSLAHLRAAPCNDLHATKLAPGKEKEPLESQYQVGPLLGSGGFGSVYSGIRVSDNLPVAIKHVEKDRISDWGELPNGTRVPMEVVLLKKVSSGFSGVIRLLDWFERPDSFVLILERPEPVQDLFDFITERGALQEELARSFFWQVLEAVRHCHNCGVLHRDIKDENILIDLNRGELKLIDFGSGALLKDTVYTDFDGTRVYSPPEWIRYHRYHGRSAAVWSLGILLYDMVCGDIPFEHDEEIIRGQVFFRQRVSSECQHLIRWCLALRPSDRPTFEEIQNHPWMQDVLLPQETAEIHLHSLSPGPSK
Description: as §1, §2

[6] = system: panel of 45 recombinant protein kinases; experiment: Kinase selectivity profiling, whole panel; type: biochemical, human; conditions: focused selectivity panel of 45 kinases, 100 μM
Description: as §1, §2

[7] = biological target: T1, CK2α; experiment: Steady state kinetic analysis of CK2 inhibition (Lineweaver-Burk); type: biochemical; design: made in house; host or cells: Escherichia coli (CK2α); conditions: for Ki: increasing ATP
Description: Steady state kinetic analysis of compound 1 complexation with CK2 was performed by incubation of CK2α with increasing concentrations of CK2β in the presence of different concentrations of the compound. ATP and eIF2-derived peptide were present at their saturating concentrations, 100 μM and 600 μM, respectively (Fig. 3e).
In the presence of 100 μM of compound 1, adding increasing concentrations of CK2β-dependent peptide at a saturating concentration of ATP (100 μM) had no effect on the extent of inhibition (Fig. 2d) showing that the inhibition is also not competitive with the peptide substrate. Using steady-state kinetic analysis, we examined the effects of increasing ATP concentrations on the inhibition of phosphorylation by compound 1. In the presence of a saturating concentration of the CK2β-dependent peptide substrate (133 μM), increasing ATP concentrations reduced the level of inhibition but could not restore either the maximal velocity of the enzyme, Vmax, or the Michaelis constant, km, for ATP.
For Olig2 phosphorylation assay, GST-Olig2 fusion protein (3.7 μg) was incubated with 200 nM CK2α, in the absence or presence of 50 μM compound 1 and increasing concentrations of CK2β. Samples were analyzed by SDS PAGE and subjected to autoradiography. Phosphoproteins were quantified by densitometry scanning. For eIF2 peptide phosphorylation assay, the CK2β-dependent peptide substrate (600 μM) was incubated with CK2α (40–50 nM) and increasing concentrations of compound 1 or/and CK2β.
Fig. S2. Ki and Ki’ value determination from enzymatic kinetic characterization of CK2 inhibition by compound 1. (a) Ki value has been calculated from linear regression analysis of the slopes (α/Vmax) of the Lineweaver-Burk double reciprocal plots of Fig 2f. (b) Ki’ value has been calculated from linear regression analysis of the y-intercept (α’/Vmax) of Lineweaver-Burk double reciprocal plots of Fig 2f.

T1 sequence (P68400 whole entry): as the sequence (P68400 whole entry) above

Compound | displacement of AMPPNP upon compound binding [1] | inhibition at 100 µM [2] [%] | inhibition at 100 µM [3] [%] | inhibition at 100 µM [4] [%] | inhibition at 100 µM [5] [%] | Gini coefficient [6] | Ki ([7]; for CK2α, Lineweaver-Burk slopes) [µM] | Ki ([7]; for the CK2α-ATP complex, Lineweaver-Burk y-intercepts) [µM] | Ki' (mixed competitive inhibition towards CK2β) ([7]; for the CK2α-ATP complex, increasing CK2β, ATP 100 μM, eIF2-derived peptide 600 μM) [µM]
O=C(OCC1CCN(CCNS(=O)(=O)c2ccccc2)CC1)c1c[nH]c2ccccc12 [Compound 4, (1-(2-(Phenylsulfonamido)ethyl)piperidin-4-yl)methyl 1H-indole-3-carboxylate] | not displaced | – | – | – | – | – | – | – | –
COc1[nH]c2ccc(F)cc2c1C(=O)OCC1CCN(CCNS(C)(=O)=O)CC1 [Compound 1] | – | 24 | 27 | 85 | 36 | 0.81 | 12 | 62 | ~65
